In PubChem BioAssay (NCI):
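Step 1: Grow cells in 96-well plates. Step 2: Expose to compound for 48 hours at 5 concentrations. Step 3: Interpolate endpoints linearly; if unreached, use highest concentration. TGI: concentration producing complete growth inhibition.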

Legend:
Test in all cases: NCI tumour cell line growth inhibition, 48 h
786-0 renal = tested on: 786-0 renal
A498 renal = tested on: A498 renal
A549 NSCLC = tested on: A549 NSCLC
ACHN renal = tested on: ACHN renal
CAKI-1 renal = tested on: CAKI-1 renal
CCRF-CEM leukemia = tested on: CCRF-CEM leukemia
COLO 205 colon = tested on: COLO 205 colon
DLD-1 colon = tested on: DLD-1 colon
DMS 114 small cell lung = tested on: DMS 114 small cell lung
DMS 273 small cell lung = tested on: DMS 273 small cell lung
EKVX NSCLC = tested on: EKVX NSCLC
HCC-2998 colon = tested on: HCC-2998 colon
HCT-116 colon = tested on: HCT-116 colon
HCT-15 colon = tested on: HCT-15 colon
HL-60(TB) leukemia = tested on: HL-60(TB) leukemia
HOP-62 NSCLC = tested on: HOP-62 NSCLC
HOP-92 NSCLC = tested on: HOP-92 NSCLC
IGROV1 ovarian = tested on: IGROV1 ovarian
K-562 leukemia = tested on: K-562 leukemia
KM12 colon = tested on: KM12 colon
KM20L2 colon = tested on: KM20L2 colon
LOX IMVI melanoma = tested on: LOX IMVI melanoma
LXFL 529 NSCLC = tested on: LXFL 529 NSCLC
M14 melanoma = tested on: M14 melanoma
M19-MEL melanoma = tested on: M19-MEL melanoma
MOLT-4 leukemia = tested on: MOLT-4 leukemia
NCI-H23 lung = tested on: NCI-H23 lung
NCI-H460 lung = tested on: NCI-H460 lung
OVCAR-3 ovarian = tested on: OVCAR-3 ovarian
OVCAR-4 ovarian = tested on: OVCAR-4 ovarian
OVCAR-8 ovarian = tested on: OVCAR-8 ovarian
RPMI-8226 leukemia = tested on: RPMI-8226 leukemia
RXF 393 renal = tested on: RXF 393 renal
SF-268 CNS = tested on: SF-268 CNS
SF-295 CNS = tested on: SF-295 CNS
SF-539 CNS = tested on: SF-539 CNS
SK-MEL-2 melanoma = tested on: SK-MEL-2 melanoma
SK-MEL-28 melanoma = tested on: SK-MEL-28 melanoma
SK-MEL-5 melanoma = tested on: SK-MEL-5 melanoma
SK-OV-3 ovarian = tested on: SK-OV-3 ovarian
SN12C renal = tested on: SN12C renal
SNB-19 CNS = tested on: SNB-19 CNS
SNB-75 CNS = tested on: SNB-75 CNS
SNB-78 CNS = tested on: SNB-78 CNS
SR leukemia = tested on: SR leukemia
SW-620 colon = tested on: SW-620 colon
TK-10 renal = tested on: TK-10 renal
U251 CNS = tested on: U251 CNS
UACC-257 melanoma = tested on: UACC-257 melanoma
UACC-62 melanoma = tested on: UACC-62 melanoma
UO-31 renal = tested on: UO-31 renal
XF 498 CNS = tested on: XF 498 CNS
BT-549 breast = tested on: BT-549 breast
DU-145 prostate = tested on: DU-145 prostate
HS 578T breast = tested on: HS 578T breast
HT29 colon = tested on: HT29 colon
MALME-3M melanoma = tested on: MALME-3M melanoma
MCF7 breast = tested on: MCF7 breast
MDA-MB-231 breast = tested on: MDA-MB-231 breast
MDA-MB-435 = tested on: MDA-MB-435
MDA-N = tested on: MDA-N
NCI-H226 lung = tested on: NCI-H226 lung
NCI-H522 lung = tested on: NCI-H522 lung
NCI/ADR-RES ovarian = tested on: NCI/ADR-RES ovarian
OVCAR-5 ovarian = tested on: OVCAR-5 ovarian
PC-3 prostate = tested on: PC-3 prostate
T-47D breast = tested on: T-47D breast

CC1=NN(C(=O)Nc2ccc(Cl)cc2)C(=O)C2CCC(=O)N12 (stereo not given)
TGI (786-0 renal): > 100 µM
TGI (A498 renal): > 100 µM
TGI (A549 NSCLC): > 100 µM
TGI (ACHN renal): > 100 µM
TGI (CAKI-1 renal): > 100 µM
TGI (CCRF-CEM leukemia): > 100 µM
TGI (COLO 205 colon): > 100 µM
TGI (DLD-1 colon): > 100 µM
TGI (DMS 114 small cell lung): > 100 µM
TGI (DMS 273 small cell lung): > 100 µM
TGI (EKVX NSCLC): > 100 µM
TGI (HCC-2998 colon): > 100 µM
TGI (HCT-116 colon): > 100 µM
TGI (HCT-15 colon): 44.2 µM
TGI (HL-60(TB) leukemia): > 100 µM
TGI (HOP-62 NSCLC): > 100 µM
TGI (HOP-92 NSCLC): > 100 µM
TGI (IGROV1 ovarian): > 100 µM
TGI (K-562 leukemia): > 100 µM
TGI (KM12 colon): > 100 µM
TGI (KM20L2 colon): > 100 µM
TGI (LOX IMVI melanoma): > 100 µM
TGI (LXFL 529 NSCLC): > 100 µM
TGI (M14 melanoma): > 100 µM
TGI (M19-MEL melanoma): > 100 µM
TGI (MOLT-4 leukemia): > 100 µM
TGI (NCI-H23 lung): > 100 µM
TGI (NCI-H460 lung): > 100 µM
TGI (OVCAR-3 ovarian): > 100 µM
TGI (OVCAR-4 ovarian): > 100 µM
TGI (OVCAR-8 ovarian): > 100 µM
TGI (RPMI-8226 leukemia): > 100 µM
TGI (RXF 393 renal): > 100 µM
TGI (SF-268 CNS): > 100 µM
TGI (SF-295 CNS): > 100 µM
TGI (SF-539 CNS): > 100 µM
TGI (SK-MEL-2 melanoma): > 100 µM
TGI (SK-MEL-28 melanoma): > 100 µM
TGI (SK-MEL-5 melanoma): > 100 µM
TGI (SK-OV-3 ovarian): > 100 µM
TGI (SN12C renal): > 100 µM
TGI (SNB-19 CNS): > 100 µM
TGI (SNB-75 CNS): > 100 µM
TGI (SNB-78 CNS): > 100 µM
TGI (SR leukemia): > 100 µM
TGI (SW-620 colon): > 100 µM
TGI (TK-10 renal): > 100 µM
TGI (U251 CNS): > 100 µM
TGI (UACC-257 melanoma): > 100 µM
TGI (UACC-62 melanoma): > 100 µM
TGI (UO-31 renal): > 100 µM
TGI (XF 498 CNS): > 100 µM

N/N=C(\c1nc2ccc([N+](=O)[O-])cc2[nH]c1=O)C(O)c1ccc(Cl)c(Cl)c1 (stereo not given)
TGI (786-0 renal): > 100 µM
TGI (A498 renal): > 100 µM
TGI (A549 NSCLC): > 100 µM
TGI (ACHN renal): > 100 µM
TGI (BT-549 breast): > 100 µM
TGI (CAKI-1 renal): > 100 µM
TGI (CCRF-CEM leukemia): > 100 µM
TGI (COLO 205 colon): > 100 µM
TGI (DU-145 prostate): > 100 µM
TGI (EKVX NSCLC): > 100 µM
TGI (HCC-2998 colon): > 100 µM
TGI (HCT-116 colon): > 100 µM
TGI (HCT-15 colon): > 100 µM
TGI (HL-60(TB) leukemia): > 100 µM
TGI (HOP-62 NSCLC): > 100 µM
TGI (HOP-92 NSCLC): > 100 µM
TGI (HS 578T breast): > 100 µM
TGI (HT29 colon): > 100 µM
TGI (IGROV1 ovarian): > 100 µM
TGI (K-562 leukemia): > 100 µM
TGI (KM12 colon): > 100 µM
TGI (LOX IMVI melanoma): > 100 µM
TGI (M14 melanoma): > 100 µM
TGI (MALME-3M melanoma): > 100 µM
TGI (MCF7 breast): > 100 µM
TGI (MDA-MB-231 breast): > 100 µM
TGI (MDA-MB-435): > 100 µM
TGI (MDA-N): > 100 µM
TGI (MOLT-4 leukemia): > 100 µM
TGI (NCI-H226 lung): > 100 µM
TGI (NCI-H23 lung): > 100 µM
TGI (NCI-H460 lung): > 100 µM
TGI (NCI-H522 lung): > 100 µM
TGI (NCI/ADR-RES ovarian): > 100 µM
TGI (OVCAR-3 ovarian): > 100 µM
TGI (OVCAR-4 ovarian): > 100 µM
TGI (OVCAR-5 ovarian): > 100 µM
TGI (OVCAR-8 ovarian): > 100 µM
TGI (PC-3 prostate): > 100 µM
TGI (RPMI-8226 leukemia): > 100 µM
TGI (RXF 393 renal): > 100 µM
TGI (SF-268 CNS): > 100 µM
TGI (SF-295 CNS): > 100 µM
TGI (SF-539 CNS): > 100 µM
TGI (SK-MEL-2 melanoma): > 100 µM
TGI (SK-MEL-28 melanoma): > 100 µM
TGI (SK-MEL-5 melanoma): > 100 µM
TGI (SK-OV-3 ovarian): > 100 µM
TGI (SN12C renal): > 100 µM
TGI (SNB-19 CNS): > 100 µM
TGI (SNB-75 CNS): > 100 µM
TGI (SR leukemia): > 100 µM
TGI (SW-620 colon): > 100 µM
TGI (T-47D breast): > 100 µM
TGI (TK-10 renal): > 100 µM
TGI (U251 CNS): > 100 µM
TGI (UACC-257 melanoma): > 100 µM
TGI (UACC-62 melanoma): > 100 µM
TGI (UO-31 renal): > 100 µM

O=C1/C(=C/c2ccc(O)cc2)CCc2ccc([N+](=O)[O-])cc21
TGI (786-0 renal): > 100 µM
TGI (A498 renal): > 100 µM
TGI (A549 NSCLC): > 100 µM
TGI (ACHN renal): > 100 µM
TGI (BT-549 breast): > 100 µM
TGI (CAKI-1 renal): > 100 µM
TGI (CCRF-CEM leukemia): > 100 µM
TGI (COLO 205 colon): > 100 µM
TGI (DU-145 prostate): > 100 µM
TGI (EKVX NSCLC): > 100 µM
TGI (HCC-2998 colon): > 100 µM
TGI (HCT-116 colon): > 100 µM
TGI (HCT-15 colon): > 100 µM
TGI (HL-60(TB) leukemia): > 100 µM
TGI (HOP-62 NSCLC): > 100 µM
TGI (HOP-92 NSCLC): > 89.6 µM
TGI (HS 578T breast): > 79.8 µM
TGI (HT29 colon): > 100 µM
TGI (IGROV1 ovarian): > 100 µM
TGI (K-562 leukemia): > 100 µM
TGI (KM12 colon): > 100 µM
TGI (LOX IMVI melanoma): > 100 µM
TGI (M14 melanoma): > 100 µM
TGI (MALME-3M melanoma): > 100 µM
TGI (MCF7 breast): > 100 µM
TGI (MDA-MB-231 breast): > 100 µM
TGI (MDA-MB-435): > 100 µM
TGI (MDA-N): > 100 µM
TGI (MOLT-4 leukemia): > 100 µM
TGI (NCI-H226 lung): > 92.7 µM
TGI (NCI-H23 lung): > 100 µM
TGI (NCI-H460 lung): > 100 µM
TGI (NCI-H522 lung): > 30.8 µM
TGI (NCI/ADR-RES ovarian): > 100 µM
TGI (OVCAR-3 ovarian): > 100 µM
TGI (OVCAR-4 ovarian): > 100 µM
TGI (OVCAR-5 ovarian): > 100 µM
TGI (OVCAR-8 ovarian): > 100 µM
TGI (PC-3 prostate): > 100 µM
TGI (RPMI-8226 leukemia): > 100 µM
TGI (RXF 393 renal): > 92.3 µM
TGI (SF-268 CNS): > 100 µM
TGI (SF-295 CNS): > 100 µM
TGI (SF-539 CNS): > 100 µM
TGI (SK-MEL-2 melanoma): > 100 µM
TGI (SK-MEL-28 melanoma): > 100 µM
TGI (SK-MEL-5 melanoma): > 100 µM
TGI (SK-OV-3 ovarian): > 100 µM
TGI (SN12C renal): > 100 µM
TGI (SNB-19 CNS): 98.7 µM
TGI (SNB-75 CNS): > 100 µM
TGI (SR leukemia): > 100 µM
TGI (SW-620 colon): > 100 µM
TGI (T-47D breast): > 100 µM
TGI (TK-10 renal): > 100 µM
TGI (U251 CNS): > 100 µM
TGI (UACC-257 melanoma): > 100 µM
TGI (UACC-62 melanoma): > 100 µM
TGI (UO-31 renal): > 81.6 µM
